{
  "source": "paper PMC6749586",
  "about": "“Design, Synthesis, and Anticancer Effect Studies of Iridium(III) Polypyridyl Complexes against SGC-7901 Cells” (Molecules, 2019)",
  "key": {"SGC-7901 cells [1]": {"system": "SGC-7901 cells", "test": "Mitochondrial membrane potential assay with JC-1", "format": "cell-based, human", "conditions": "substance alone: 4.0 µM 1, 15.0 µM 2, 15.0 µM 3, CCCP or NAC; 24 h; control 12.03", "description": "The SGC-7901 cells were seeded into a 12-well plate at a density of 1.5 × 10^5 cells per well and incubated to attach at 37 °C in 5% CO2. Overnight, the cells were treated with complexes 1–3 for 24 h. CCCP was used as a positive control. Then, the cells were incubated with JC-1 for 30 min at room temperature, after which the remaining dye was washed away with PBS. The samples were then observed under the ImageXpress Micro XLS system and flow cytometry was employed to quantify the fluorescence intensity."}, "A549 cells": {"system": "A549 cells", "test": "MTT cytotoxicity assay, A549", "format": "cell-based, human", "conditions": "read-out: IC50 toward A549", "description": "(§1) The lung carcinoma cell line A549, the cervical cancer cell line HeLa, the esophageal cancer cell line Eca-109, and the human hepatocellular carcinoma cell line BEL-7402 were purchased from the cell bank of the Cell Institute of Sinica Academia Shanghai (Shanghai, China). The gastric adenocarcinoma cell line SGC-7901, the hepatocellular carcinoma cell line HepG2, and the mouse embryonic fibroblast cell line NIH 3T3 were obtained from the Experimental Animal Center of Sun Yat-Sen University (Guangzhou, China). The BEL-7402 and SGC-7901 cell lines were cultured in Roswell Park Memorial Institute Medium (RPMI-1640); and A549, Eca-109, HepG2, and NIH 3T3 cells were grown in Dulbecco’s Modified Eagle’s Medium (DMEM), including 10% fetal bovine serum (FBS), 100 units mL^−1 penicillin/streptomycin mixture, and 2.0 g/L of NaHCO3. Cell passage experiments were performed with trypsin every 2 days to maintain exponential growth. All cells were cultured until they reached logarithmic growth phase, unless specifically noted.\n(§2) Cell cytotoxicity following treatment with the iridium(III) complexes was detected by MTT assay. The cells were seeded into 96-well micro-assay culture plates (1 × 10^4 cells per well) and grown overnight in a 5% CO2 incubator at 37 °C. Then, the cell lines were treated with gradient concentrations of the complexes 1–3. After treatment for 48 h, MTT solution (5 mg mL^−1, […]) dissolved in phosphate buffer was added to each well and the cells were further cultured for 4 h. Upon completion of incubation, the solvent was removed and 100 µL/well of buffer containing dimethylformamide (50%) and sodium dodecyl sulfate (20%) was added to dissolve the produced formazan. The absorbance of each well was measured with a microplate reader at a wavelength of 490 nm. The IC50 values were determined from the plots of viability versus concentration used to treat the cells. Three independent experiments were performed to obtain the mean values."}, "SGC-7901 cells [2]": {"system": "SGC-7901 cells", "test": "MTT cytotoxicity assay, SGC-7901", "format": "cell-based, human", "conditions": "read-out: IC50 toward SGC-7901", "description": "as §1, §2"}, "HepG2 cells": {"system": "HepG2 cells", "test": "MTT cytotoxicity assay, HepG2", "format": "cell-based, human", "conditions": "read-out: IC50 toward HepG2", "description": "as §1, §2"}, "BEL-7402 cells": {"system": "BEL-7402 cells", "test": "MTT cytotoxicity assay, BEL-7402", "format": "cell-based, human", "conditions": "read-out: IC50 toward BEL-7402", "description": "as §1, §2"}, "HeLa cells": {"system": "HeLa cells", "test": "MTT cytotoxicity assay, HeLa", "format": "cell-based, human", "conditions": "48 h, read-out: IC50 toward HeLa", "description": "as §1, §2"}, "NIH 3T3 cells": {"system": "NIH 3T3 cells", "test": "MTT cytotoxicity assay, normal NIH 3T3", "format": "cell-based, mouse", "conditions": "Mus musculus, NIH3T3, 48 h, read-out: IC50 toward NIH 3T3", "description": "as §1, §2"}, "Eca-109 cells": {"system": "Eca-109 cells", "test": "MTT cytotoxicity assay, Eca-109", "format": "cell-based, human", "conditions": "48 h, read-out: IC50 toward Eca-109", "description": "The lung carcinoma cell line A549, the cervical cancer cell line HeLa, the esophageal cancer cell line Eca-109, and the human hepatocellular carcinoma cell line BEL-7402 were purchased from the cell bank of the Cell Institute of Sinica Academia Shanghai (Shanghai, China). The gastric adenocarcinoma cell line SGC-7901, the hepatocellular carcinoma cell line HepG2, and the mouse embryonic fibroblast cell line NIH 3T3 were obtained from the Experimental Animal Center of Sun Yat-Sen University (Guangzhou, China). […] Cell passage experiments were performed with trypsin every 2 days to maintain exponential growth. All cells were cultured until they reached logarithmic growth phase, unless specifically noted. Cell cytotoxicity following treatment with the iridium(III) complexes was detected by MTT assay. The cells were seeded into 96-well micro-assay culture plates (1 × 10^4 cells per well) and grown overnight in a 5% CO2 incubator at 37 °C. Then, the cell lines were treated with gradient concentrations of the complexes 1–3. After treatment for 48 h, MTT solution (5 mg mL^−1, […]) dissolved in phosphate buffer was added to each well and the cells were further cultured for 4 h. […] The absorbance of each well was measured with a microplate reader at a wavelength of 490 nm. The IC50 values were determined from the plots of viability versus concentration used to treat the cells. Three independent experiments were performed to obtain the mean values."}},
  "note": "Read-outs that look alike come from different tables or passages of the source.",
  "data": [
    {"smiles": "CC(=O)N[C@@H](CS)C(=O)O", "note": "[NAC, N-acetylcysteine, reference compound]", "values": [
      {"measurement": "Ratio of red/green JC-1 fluorescence intensity (R)", "setting": "SGC-7901 cells [1]", "value": 19.40}
    ]},
    {"smiles": "O=[N+]([O-])c1cc2cccnc2c2ncccc12", "note": "[NP, 5-nitrophenanthroline]", "values": [
      {"measurement": "IC50", "setting": "A549 cells; Homo sapiens, A549, 48 h", "value": "11.1 ± 0.7", "unit": "µM"},
      {"measurement": "IC50", "setting": "SGC-7901 cells [2]; Homo sapiens, SGC-7901, 48 h", "value": "18.4 ± 0.1", "unit": "µM"},
      {"measurement": "IC50", "setting": "HepG2 cells; Homo sapiens, HepG2, 48 h", "value": "16.7 ± 0.5", "unit": "µM"},
      {"measurement": "IC50", "setting": "BEL-7402 cells; Homo sapiens, Bel-7402, 48 h", "value": "23.5 ± 1.1", "unit": "µM"},
      {"measurement": "IC50", "setting": "HeLa cells; Homo sapiens, HeLa", "value": "18.1 ± 1.7", "unit": "µM"},
      {"measurement": "IC50", "setting": "NIH 3T3 cells", "value": "> 200", "unit": "µM"}
    ]},
    {"smiles": "Nc1c(N)c2cccnc2c2ncccc12", "note": "[DAP, 5,6-diamino-phenanthroline]", "values": [
      {"measurement": "IC50", "setting": "A549 cells; Homo sapiens, A549, 48 h", "value": "5 ± 0.3", "unit": "µM"},
      {"measurement": "IC50", "setting": "SGC-7901 cells [2]; Homo sapiens, SGC-7901, 48 h", "value": "15.8 ± 2.8", "unit": "µM"},
      {"measurement": "IC50", "setting": "HepG2 cells; Homo sapiens, HepG2, 48 h", "value": "4.6 ± 0.8", "unit": "µM"},
      {"measurement": "IC50", "setting": "BEL-7402 cells; Homo sapiens, Bel-7402, 48 h", "value": "37.4 ± 3.2", "unit": "µM"},
      {"measurement": "IC50", "setting": "HeLa cells; Homo sapiens, HeLa", "value": "9.2 ± 1", "unit": "µM"},
      {"measurement": "IC50", "setting": "NIH 3T3 cells", "value": "12.3 ± 0.8", "unit": "µM"}
    ]},
    {"smiles": "Nc1c([N+](=O)[O-])c2cccnc2c2ncccc12", "note": "[NAP, 5-nitro-6-amino-phenanthroline]", "values": [
      {"measurement": "IC50", "setting": "A549 cells; Homo sapiens, A549, 48 h", "value": "42.7 ± 2.1", "unit": "µM"},
      {"measurement": "IC50", "setting": "SGC-7901 cells [2]; Homo sapiens, SGC-7901, 48 h", "value": "90.9 ± 7.4", "unit": "µM"},
      {"measurement": "IC50", "setting": "HepG2 cells; Homo sapiens, HepG2, 48 h", "value": "56 ± 1.9", "unit": "µM"},
      {"measurement": "IC50", "setting": "BEL-7402 cells; Homo sapiens, Bel-7402, 48 h", "value": "21.1 ± 0.8", "unit": "µM"},
      {"measurement": "IC50", "setting": "HeLa cells; Homo sapiens, HeLa", "value": "45.8 ± 4", "unit": "µM"},
      {"measurement": "IC50", "setting": "NIH 3T3 cells", "value": "61.9 ± 1.9", "unit": "µM"}
    ]},
    {"smiles": "N.N.[Cl][Pt][Cl]", "note": "[Cisplatin, reference compound]", "values": [
      {"measurement": "IC50", "setting": "A549 cells; 48 h", "value": "7.5 ± 1.3", "unit": "µM"},
      {"measurement": "IC50", "setting": "SGC-7901 cells [2]; 48 h", "value": "3.6 ± 0.5", "unit": "µM"},
      {"measurement": "IC50", "setting": "HepG2 cells; 48 h", "value": "12.5 ± 1.5", "unit": "µM"},
      {"measurement": "IC50", "setting": "BEL-7402 cells; 48 h", "value": "10.8 ± 1.6", "unit": "µM"},
      {"measurement": "IC50", "setting": "HeLa cells", "value": "7 ± 1", "unit": "µM"},
      {"measurement": "IC50", "setting": "Eca-109 cells", "value": "11.2 ± 0.6", "unit": "µM"}
    ]}
  ]
}
